Values quoted from earlier work, collected in patent US20070010487A1 (priority 2005, published 2007).

Target: P-gp efflux (Homo sapiens, UniProt P08183)
Sequence (P08183 whole entry): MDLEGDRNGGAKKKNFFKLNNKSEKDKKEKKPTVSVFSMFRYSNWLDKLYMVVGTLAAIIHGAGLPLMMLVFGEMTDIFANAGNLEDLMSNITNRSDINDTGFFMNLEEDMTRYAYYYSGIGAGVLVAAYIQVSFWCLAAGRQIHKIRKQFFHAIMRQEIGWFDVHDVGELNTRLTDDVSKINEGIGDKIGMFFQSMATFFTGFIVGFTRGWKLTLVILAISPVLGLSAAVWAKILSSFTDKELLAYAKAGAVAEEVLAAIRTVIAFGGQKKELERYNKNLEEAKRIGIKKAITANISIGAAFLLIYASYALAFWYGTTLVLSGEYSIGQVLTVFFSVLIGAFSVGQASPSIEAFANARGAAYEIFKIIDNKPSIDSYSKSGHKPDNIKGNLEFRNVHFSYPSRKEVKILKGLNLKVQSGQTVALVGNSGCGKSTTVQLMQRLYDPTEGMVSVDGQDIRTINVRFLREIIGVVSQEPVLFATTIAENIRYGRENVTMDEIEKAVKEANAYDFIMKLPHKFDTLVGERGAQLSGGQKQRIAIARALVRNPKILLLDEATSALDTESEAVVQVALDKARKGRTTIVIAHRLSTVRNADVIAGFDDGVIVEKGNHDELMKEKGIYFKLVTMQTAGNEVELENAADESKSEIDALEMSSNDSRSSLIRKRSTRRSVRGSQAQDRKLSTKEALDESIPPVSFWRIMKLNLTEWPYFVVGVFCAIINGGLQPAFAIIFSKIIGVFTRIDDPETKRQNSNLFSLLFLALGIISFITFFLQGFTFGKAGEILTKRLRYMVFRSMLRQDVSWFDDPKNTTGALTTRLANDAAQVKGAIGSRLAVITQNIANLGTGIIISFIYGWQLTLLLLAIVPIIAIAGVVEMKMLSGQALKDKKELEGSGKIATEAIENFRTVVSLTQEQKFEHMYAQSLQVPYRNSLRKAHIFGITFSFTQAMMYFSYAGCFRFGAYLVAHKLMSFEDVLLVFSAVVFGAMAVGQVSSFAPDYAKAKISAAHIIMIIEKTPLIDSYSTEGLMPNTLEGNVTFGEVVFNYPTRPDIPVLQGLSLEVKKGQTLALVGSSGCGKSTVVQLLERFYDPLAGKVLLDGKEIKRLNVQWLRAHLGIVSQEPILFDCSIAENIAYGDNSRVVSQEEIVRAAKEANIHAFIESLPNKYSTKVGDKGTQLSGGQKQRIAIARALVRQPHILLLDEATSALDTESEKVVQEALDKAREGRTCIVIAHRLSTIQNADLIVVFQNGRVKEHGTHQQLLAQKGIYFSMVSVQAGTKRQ

O[C@@H](COc1cccc2ncccc12)CN1CCN([C@@H]2c3ccccc3[C@@H]3[C@H](c4ccccc42)C3(F)F)CC1 [Zosuquidar]
substrate for P-gp efflux: does not appear to be a substrate for P-gp efflux
